Reference: patent US20040180895A1, “Use of a pyridazinone derivative” (priority 2001, published 2004)

Columns and labels:
plasma proteins = assay: Plasma protein binding; type: in vitro ADME; conditions: read-out: bound to plasma proteins (converted)
Excerpt: It is known that the favourable hemodynamic effects following intravenous administration of levosimendan are seen considerably longer than levosimendan concentrations are observed in plasma. […] However, it has also been discovered that only about 30% of the active metabolite is bound to plasma proteins whereas as much as 98% of levosimendan is bound to plasma proteins. Therefore, the active free concentration of the active metabolite in plasma is proportionally much higher than that of levosimendan.

[1] = test system: congestive heart failure patients; assay: All-cause mortality (Kaplan Meier) in congestive heart failure patients, dobutamine controlled studies; type: in vivo, human; conditions: intravenous levosimendan 0.1-0.2 μg/kg/min for 24 hours vs dobutamine; FIG. 2
[2] = Plasma concentrations following 24 h levosimendan infusion in heart failure patients; type: in vivo, human; conditions: levosimendan 0.2 μg/kg/min for 24 hours; for half-life: human, plasma, intravenous, 0.2 ug/kg, FIG. 1, read-out: elimination half-life (converted)
Protocol: Plasma concentrations of levosimendan and its active metabolite (R)-N-[4-(1,4,5,6-tetrahydro-4-methyl-6-oxo-3-pyridazinyl)phenyl]acetamide (OR-1896) following administration of 0.2 μg/kg/min of levosimendan for 24 hours in heart failure patients are shown in FIG. 1.

[3] = Elimination half-life of the active ingredient in man; conditions: human, in vivo
Excerpt: The active ingredient of the invention may be administered periodically, e.g. weekly or biweekly, or daily or several times a day, depending on the patient's needs. […] Therefore, a periodical treatment, e.g. weekly, may be satisfactory.

Row | time plasma concentrations are detectable after the infusion ([2]; FIG. 1) [days] | half-life [3] [h] | SMILES | fraction unbound (plasma proteins) | all-cause mortality (0-14 days), Kaplan Meier survival curves [1] | half-life [2] [h] | plasma concentrations after discontinuation of infusion ([2]; one day after discontinuation)
1 |  |  | C[C@@H]1CC(=O)NN=C1c1ccc(NN=C(C#N)C#N)cc1 [levosimendan] | 0.02 | survival curves are clearly diverging throughout the observation period | ~1.3 | not detectable one day after the discontinuation of infusion
2 | 12 |  | CC(=O)Nc1ccc(C2=NNC(=O)C[C@H]2C)cc1 [OR-1896, (R)-N-[4-(1,4,5,6-tetrahydro-4-methyl-6-oxo-3-pyridazinyl)phenyl]acetamide] | ~0.7 |  | ~77 | 
3 |  | ~72 | CC(=O)Nc1ccc(C2=NNC(=O)CC2C)cc1 (centres unmarked) [(I), N-[4-(1,4,5,6-tetrahydro-4-methyl-6-oxo-3-pyridazinyl)phenyl]acetamide] |  |  |  | 
